Experimental data published in ChEMBL document CHEMBL1131824, “3-Alkyl-(5,5'-diphenyl)imidazolidineiones as new cannabinoid receptor ligands” (Bioorg Med Chem Lett, 1999).
The source made the active and inactive calls. The calls are words filed in the database; no cut-off is given here.

What was measured:
Cannabinoid receptor 1 [1] = molecular target: T1, Cannabinoid receptor 1 (Homo sapiens, UniProt P21554); assay: Binding affinity for brain CBI receptor was determined
Cannabinoid receptor 1 [2] = molecular target: T1, Cannabinoid receptor 1; assay: Displacement of [3H]-SR- 141716A binding to human CB1 receptor expressed in CHO cell membranes at the concentration of 10 uM
Cannabinoid receptor 1 [3] = molecular target: T1, Cannabinoid receptor 1; assay: Displacement of [3H]-SR- 141716A binding to human CB1 receptor expressed in CHO cell membranes at the concentration of 1 uM
Cannabinoid receptor 1 [4] = molecular target: T1, Cannabinoid receptor 1; assay: Ability to displace [3H]-SR- 141716A binding to CB1 receptor expressed in CHO cell membrane; assay type: cell membranes
Cannabinoid receptor 1 [5] = molecular target: T1, Cannabinoid receptor 1; assay: Displacement of [3H]-SR- 141716A binding to human CB1 receptor expressed in CHO cell membranes at the concentration of 10 uM; Not significant
Cannabinoid receptor 1 [6] = molecular target: T1, Cannabinoid receptor 1; assay: biochemical; assay type: cell-based, CHO

T1 sequence (P21554 whole entry): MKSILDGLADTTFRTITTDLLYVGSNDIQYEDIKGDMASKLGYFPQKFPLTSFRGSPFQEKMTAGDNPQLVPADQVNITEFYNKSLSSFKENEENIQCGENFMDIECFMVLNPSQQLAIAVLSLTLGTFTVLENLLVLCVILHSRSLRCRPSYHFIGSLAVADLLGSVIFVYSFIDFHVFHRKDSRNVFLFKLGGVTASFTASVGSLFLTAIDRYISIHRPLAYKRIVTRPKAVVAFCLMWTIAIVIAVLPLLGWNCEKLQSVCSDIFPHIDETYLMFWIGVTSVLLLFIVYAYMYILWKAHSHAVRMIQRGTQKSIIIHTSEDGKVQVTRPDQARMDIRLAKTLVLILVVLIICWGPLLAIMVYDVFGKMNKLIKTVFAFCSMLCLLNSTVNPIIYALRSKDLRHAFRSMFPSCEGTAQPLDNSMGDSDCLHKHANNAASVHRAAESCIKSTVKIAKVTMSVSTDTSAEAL

With CCCCCn1ccc(C(=O)c2cccc3ccccc23)c1 the Ki (Cannabinoid receptor 1 [1]) was 87 nM.

With Cc1ccc(C2(c3ccc(C)cc3)NC(=O)N(CCN3CCOCC3)C2=O)cc1 the Displacement (Cannabinoid receptor 1 [2]) was 23.9%.

With COc1ccc(C2(c3ccc(OC)cc3)NC(=O)N(CCN3CCOCC3)C2=O)cc1 the Displacement (Cannabinoid receptor 1 [2]) was 21.7%.

Compound CCCCCCN1C(=O)NC(c2ccccc2)(c2ccccc2)C1=O has a Displacement (Cannabinoid receptor 1 [2]) of 35.6%.

CN(C)CCN1C(=O)NC(c2ccccc2)(c2ccccc2)C1=O was tested, and the Displacement (Cannabinoid receptor 1 [2]) was < 5%.

With CCCCCCCN1C(=O)NC(c2ccc(Br)cc2)(c2ccc(Br)cc2)C1=O the Displacement (Cannabinoid receptor 1 [3]) was 51.5%, the Ki (Cannabinoid receptor 1 [4]) was 97.9 nM and the Displacement (Cannabinoid receptor 1 [2]) was 89.2%.

In the case of O=C1NC(c2ccccc2)(c2ccccc2)C(=O)N1Cc1ccccc1, the Displacement (Cannabinoid receptor 1 [2]) is reported as 40.6%.

For CCCCCCN1C(=O)NC(c2ccc(F)cc2)(c2ccc(F)cc2)C1=O, the Displacement (Cannabinoid receptor 1 [2]) was 40.6%.

For O=C1NC(=O)C(c2ccc(F)cc2)(c2ccc(F)cc2)N1, the Displacement (Cannabinoid receptor 1 [5]) was “inactive”.

CCCCCCN1C(=O)NC(c2ccc(OC)cc2)(c2ccc(OC)cc2)C1=O was tested, and the Displacement (Cannabinoid receptor 1 [3]) was 23% and the Displacement (Cannabinoid receptor 1 [2]) was 66.6%.

CCCCCCCN1C(=O)NC(c2ccc(C)cc2)(c2ccc(C)cc2)C1=O showed a Displacement (Cannabinoid receptor 1 [2]) of 51.3%.

For O=C1NC(=O)C(c2ccccc2)(c2ccccc2)N1, the Displacement (Cannabinoid receptor 1 [5]) was “inactive”.

CCCCN1C(=O)NC(c2ccccc2)(c2ccccc2)C1=O showed a Displacement (Cannabinoid receptor 1 [2]) of 25.1%.

CCCCCCCCN1C(=O)NC(c2ccccc2)(c2ccccc2)C1=O was tested, and the Displacement (Cannabinoid receptor 1 [2]) was 61.2%.

For CCCN1C(=O)NC(c2ccccc2)(c2ccccc2)C1=O, the Displacement (Cannabinoid receptor 1 [2]) was < 20%.

With O=C1NC(c2ccccc2)(c2ccccc2)C(=O)N1C1CC1 the Displacement (Cannabinoid receptor 1 [2]) was < 5%.

In the case of CCCCCCCCN1C(=O)NC(c2ccc(F)cc2)(c2ccc(F)cc2)C1=O, the Displacement (Cannabinoid receptor 1 [3]) is reported as 15.3% and the Displacement (Cannabinoid receptor 1 [2]) is reported as 62.5%.

Compound CCCCCCN1C(=O)NC(c2ccc(Br)cc2)(c2ccc(Br)cc2)C1=O has a Displacement (Cannabinoid receptor 1 [3]) of 30.2% and a Displacement (Cannabinoid receptor 1 [2]) of 72.1%.

O=C1NC(=O)C(c2ccc(Br)cc2)(c2ccc(Br)cc2)N1 was tested, and the Displacement (Cannabinoid receptor 1 [5]) was “inactive”.

COc1ccc(C2(c3ccc(OC)cc3)NC(=O)NC2=O)cc1 was tested, and the Displacement (Cannabinoid receptor 1 [5]) was “inactive”.

With CCCCCN1C(=O)NC(c2ccccc2)(c2ccccc2)C1=O the Displacement (Cannabinoid receptor 1 [2]) was 35.4%.

Compound CCCCCCC(C)(C)c1cc(O)c2c(c1)OC(C)(C)[C@@H]1CCC(CO)C[C@@H]21 (stereo partly specified) has a Ki (Cannabinoid receptor 1 [6]) of 0.82 nM.

O=C1NC(c2ccc(Br)cc2)(c2ccc(Br)cc2)C(=O)N1CCCO gave a Displacement (Cannabinoid receptor 1 [3]) of 50.2%, a Ki (Cannabinoid receptor 1 [4]) of 103 nM and a Displacement (Cannabinoid receptor 1 [2]) of 88.4%.

With Cc1ccc(C2(c3ccc(C)cc3)NC(=O)NC2=O)cc1 the Displacement (Cannabinoid receptor 1 [5]) was “inactive”.

For CCCCCCCN1C(=O)NC(c2ccc(F)cc2)(c2ccc(F)cc2)C1=O, the Displacement (Cannabinoid receptor 1 [2]) was 51.4%.

Work on O=C1NC(c2ccc(F)cc2)(c2ccc(F)cc2)C(=O)N1CCN1CCOCC1 yielded a Displacement (Cannabinoid receptor 1 [2]) of 30.3%.

O=C1NC(c2ccc(Br)cc2)(c2ccc(Br)cc2)C(=O)N1CCN1CCOCC1 gave a Displacement (Cannabinoid receptor 1 [3]) of 54.1%, a Ki (Cannabinoid receptor 1 [4]) of 70.3 nM and a Displacement (Cannabinoid receptor 1 [2]) of 91.2%.

With CCCCCCN1C(=O)NC(c2ccc(C)cc2)(c2ccc(C)cc2)C1=O the Displacement (Cannabinoid receptor 1 [2]) was 46.8%.

CCCCCCCCN1C(=O)NC(c2ccc(Br)cc2)(c2ccc(Br)cc2)C1=O showed a Displacement (Cannabinoid receptor 1 [3]) of 48.2% and a Displacement (Cannabinoid receptor 1 [2]) of 80%.

O=C1NC(c2ccccc2)(c2ccccc2)C(=O)N1CCN1CCCCC1 was tested, and the Displacement (Cannabinoid receptor 1 [2]) was < 15%.

For O=C1NC(c2ccccc2)(c2ccccc2)C(=O)N1CCN1CCOCC1, the Displacement (Cannabinoid receptor 1 [2]) was < 5%.
